Data: BindingDB's records for doi:10.1021/jm960720+ (Ansto, 1997)

target: Sigma non-opioid intracellular receptor 1 (Cavia porcellus) (UniProt Q60492); assay: Receptor binding affinity against Sigma-1 receptor from guinea pig membranes
Sequence (Q60492 whole entry, looked up): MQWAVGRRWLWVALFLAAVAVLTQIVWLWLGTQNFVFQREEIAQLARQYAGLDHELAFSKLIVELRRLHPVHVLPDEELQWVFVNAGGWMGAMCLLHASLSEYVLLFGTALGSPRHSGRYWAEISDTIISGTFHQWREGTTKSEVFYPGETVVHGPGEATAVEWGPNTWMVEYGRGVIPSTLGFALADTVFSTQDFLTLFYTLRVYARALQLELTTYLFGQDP

| Ki [nM] | SMILES |
| --- | --- |
| 1.2 | O=[N+]([O-])c1ccc(OCC2CCN(Cc3ccc(F)cc3)CC2)cc1 [1-(4-Fluoro-benzyl)-4-(4-nitro-phenoxymethyl)-piperidine] |

target: Sigma non-opioid intracellular receptor 1 (Cavia porcellus) (UniProt Q60492); assay: In vitro for binding affinity at sigma-1 receptor by measuring its ability to displace [3H](+)-pentazocine from guinea pig membranes

| Ki [nM] | SMILES |
| --- | --- |
| 0.84 | FCCN1CCC(COc2ccc(I)cc2)CC1 [1-(2-Fluoro-ethyl)-4-(4-iodo-phenoxymethyl)-piperidine] |
| 0.6 | Brc1ccc(OCC2CCN(CC3CC3)CC2)cc1 [4-(4-Bromo-phenoxymethyl)-1-cyclopropylmethyl-piperidine] |
| 0.38 | FCCCN1CCC(COc2ccc(Br)cc2)CC1 [4-(4-Bromo-phenoxymethyl)-1-(3-fluoro-propyl)-piperidine] |
| 3.6 | Fc1ccc(CN2CCC(COc3c(F)c(F)c(F)c(F)c3F)CC2)cc1 [1-(4-Fluoro-benzyl)-4-pentafluorophenyloxymethyl-piperidine] |
| 2.3 | OCCN1CCC(COc2ccc(I)cc2)CC1 [2-[4-(4-Iodo-phenoxymethyl)-piperidin-1-yl]-ethanol] |
| 0.76 | N#Cc1ccc(OCC2CCN(Cc3ccc(F)cc3)CC2)cc1 [4-[1-(4-Fluoro-benzyl)-piperidin-4-ylmethoxy]-benzonitrile] |
| 0.5 | Ic1ccc(OCC2CCN(CC3CC3)CC2)cc1 [1-Cyclopropylmethyl-4-(4-iodo-phenoxymethyl)-piperidine] |
| 1.7 | FCCCN1CCC(COc2c(F)c(F)c(F)c(F)c2F)CC1 [1-(3-Fluoro-propyl)-4-pentafluorophenyloxymethyl-piperidine] |
| 0.88 | Brc1cccc(OCC2CCN(CC3CC3)CC2)c1 [4-(3-Bromo-phenoxymethyl)-1-cyclopropylmethyl-piperidine] |
| 2.02 | N#Cc1ccc(OCC2CCN(Cc3ccccc3Br)CC2)cc1 [4-[1-(2-Bromo-benzyl)-piperidin-4-ylmethoxy]-benzonitrile] |
| 2.9 | N#Cc1cccc(CN2CCC(COc3ccc(I)cc3)CC2)c1 [3-[4-(4-Iodo-phenoxymethyl)-piperidin-1-ylmethyl]-benzonitrile] |
| > 1000 | Fc1c(F)c(F)c(CN2CCC(COc3c(F)c(F)c(F)c(F)c3F)CC2)c(F)c1F [1-Pentafluorophenylmethyl-4-pentafluorophenyloxymethyl-piperidine] |
| 3.3 | Fc1cccc(CN2CCC(COc3c(F)c(F)c(F)c(F)c3F)CC2)c1 [1-(3-Fluoro-benzyl)-4-pentafluorophenyloxymethyl-piperidine] |
| 9.24 | N#Cc1ccc(OCC2CCN(Cc3ccccc3I)CC2)cc1 [4-[1-(2-Iodo-benzyl)-piperidin-4-ylmethoxy]-benzonitrile] |
| 4.3 | N#Cc1ccc(OCC2CCN(CCCF)CC2)cc1 |
| 10.5 | N#Cc1ccccc1CN1CCC(COc2ccc(I)cc2)CC1 [2-[4-(4-Iodo-phenoxymethyl)-piperidin-1-ylmethyl]-benzonitrile] |

| SMILES | Ki [nM] |
| --- | --- |
| N#Cc1ccc(OCC2CCN(CCF)CC2)cc1 [4-[1-(2-Fluoro-ethyl)-piperidin-4-ylmethoxy]-benzonitrile] | 24.3 |
